From patent publication US11192849B2, “Compounds, compositions, and methods for modulating ferroptosis and treating excitotoxic disorders” (THE TRUSTEES OF COLUMBIA UNIVERSITY IN THE CITY OF NEW YORK, priority 2013, dated 2021)
Read-outs that look alike come from different tables or passages of the source.

System: HT-1080 cells
Assay: Inhibition of erastin (10 μM)-induced death in HT-1080 cells (Alamar Blue)
Type: cell-based, human
Details: for EC50: read-out: EC50
Procedure: Cell viability was typically assessed in 384-well format by Alamar Blue (Invitrogen) fluorescence (ex/em 530/590) measured on a Victor3 platereader (Perkin Elmer, Waltham, Mass.). In some experiments, Trypan Blue dye exclusion counting was performed using an automated cell counter (ViCell, Beckman-Coulter Inc., Brea, Calif.). Cell viability in test conditions is reported as a percentage relative to the negative control treatment.
The ability of various compounds disclosed herein to inhibit death in erastin (10 μM)-treated HT-1080 cells were tested. Cell viability was assessed by Alamar Blue. EC50 values (nM) were computed from dose response curves.
HT-1080 cells are cultured in DMEM containing 10% fetal bovine serum, 1% supplemented non-essential amino acids and 1% pen/strep mixture (Gibco) and maintained in a humidified environment at 37° C. with 5% CO2 in a tissue culture incubator. 1,000 HT-1080 cells are seeded per well in duplicate 384-well plates (Corning) using a BioMek FX liquid handling robot (Beckman Coulter). The next day, the medium is replaced with 36 μL of medium containing 10 μM erastin with 4 μL of medium containing a dilution series (previously prepared) of DMSO, Fer-1 (positive control) or Fer-1 analogs. 24 hours later, 10 μL Alamar Blue (Invitrogen) cell viability solution is added to the growth media to a final concentration of 10%. Cells are incubated a further 6 hours and then the Alamar Blue fluorescence intensity recorded using a Victor 3 platereader (PerkinElmer)(ex/em 530/590). All experiments are performed at least twice and the background (no cells)-subtracted Alamar Blue values for each combination are averaged between replicates.

[1] = Homo sapiens, HT-1080, SI Table 4, various R3 substitutions
[2] = Homo sapiens, HT-1080, SI Table 2, analogs with various hydrophobic moieties
[3] = Homo sapiens, HT-1080, SI Table 5
[4] = SI Table 2, analogs with various hydrophobic moieties
[5] = Homo sapiens, HT-1080, SI Table 6
[6] = Homo sapiens, HT-1080, SI Table 7
[7] = Homo sapiens, HT-1080, Table 1 (Example 10), erastin (10 μM)-treated HT-1080 cells

SMILES: COC(=O)c1ccc(NC2CCCCC2)c(N)c1 [SRS8-61, methyl 3-amino-4-(cyclohexylamino)benzoate]
- EC50 [1]: 150 nM

SMILES: CCOC(=O)c1ccc(Cl)c(N)c1 [SRS8-62]
- EC50 (SI Table 8): > 10000 nM

SMILES: CCOC(=O)c1ccc(NC2CCCCCCC2)c(N)c1 [SRS8-70, ethyl 3-amino-4-(cyclooctylamino)benzoate]
- EC50 [2]: 80 nM
- EC50 [3]: 69 nM

SMILES: CCOC(=O)c1ccc(NC2CCCC2)c(N)c1 [SRS8-73]
- EC50 [4]: 120 nM

SMILES: Nc1ccccc1NC1CCCCC1 [SRS8-75, N1-cyclohexylbenzene-1,2-diamine]
- EC50 [1]: 330 nM

SMILES: CCOC(=O)c1ccc(NC2CCC(N)CC2)c(N)c1 (centres unmarked) [SRS8-80, ethyl 3-amino-4-(4-aminocyclohexylamino)benzoate]
- EC50 (Homo sapiens, HT-1080, SI Table 3, cyclic amines bearing heteroatoms): 380 nM

SMILES: CC(C)(C)OC(=O)c1ccc(NC2CCCCCCC2)c(N)c1 [SRS8-87, tert-butyl 3-amino-4-(cyclooctylamino)benzoate]
- EC50 [1]: 90 nM

SMILES: CCOC(=O)c1ccc(NC2CCCCCC2)c(N)c1 [SRS8-90]
- EC50 [4]: 130 nM

SMILES: CCOC(=O)c1ccc(NC2CCCCCCC2)c(NC(=O)OC(C)(C)C)c1 [SRS8-91, ethyl 3-(tert-butoxycarbonylamino)-4-(cyclooctylamino)-benzoate]
- EC50 [3]: > 10000 nM

SMILES: CCCCCCCCNc1ccc(C(=O)OCC)cc1N [SRS8-94, ethyl 3-amino-4-(octylamino)benzoate]
- EC50 [2]: 80 nM
- EC50 [3]: 80 nM

SMILES: CCOC(=O)c1ccc(NC2CCCCCCC2)c(N(C)C)c1 [SRS9-01, ethyl 4-(cyclooctylamino)-3-(dimethylamino)benzoate]
- EC50 [3]: 3000 nM

SMILES: CCOC(=O)c1ccc(NC2CCCCCCCCCCC2)c(N)c1 [SRS9-06, ethyl 3-amino-4-(cyclododecylamino)benzoate]
- EC50 [2]: 70 nM

SMILES: CCOC(=O)c1ccc(NC2CCCCCCC2)c(NC)c1 [SRS9-14, ethyl 4-(cyclooctylamino)-3-(methylamino)benzoate]
- EC50 [3]: 70 nM

SMILES: CCOC(=O)c1ccc(NC2CCCCC2)c(NC(=O)OCc2ccccc2)c1 [SRS11-89, ethyl 3-(benzyloxycarbonylamino)-4-(cyclohexylamino)-benzoate]
- EC50 [3]: > 10000 nM

SMILES: CCOC(=O)c1ccc(NC2CCCCC2)c(NC(=O)OC)c1 [SRS11-97, ethyl 4-(cyclohexylamino)-3-(methoxycarbonylamino)benzoate]
- EC50 [3]: > 10000 nM

SMILES: CCOC(=O)c1ccc(NC2CCCCC2)c(NC(C)=O)c1 [SRS11-98, ethyl 4-(cyclohexylamino)-3-ethanamidobenzoate]
- EC50 [3]: > 10000 nM

SMILES: CCCCCCCCN(CCCCCCCC)c1ccc(C(=O)OCC)cc1N [SRS12-12, ethyl 3-amino-4-(dioctylamino)benzoate]
- EC50 [3]: 15300 nM

SMILES: CCCCCCCCCCOC(=O)c1ccc(NC2CCCCC2)c(N)c1 [SRS12-29, decyl 3-amino-4-(cyclohexylamino)benzoate]
- EC50 [1]: 76 nM

SMILES: CCOC(=O)c1ccc(NC2CCCCC2)c(NCc2ccc(F)cc2)c1 [SRS12-33, ethyl 4-(cyclohexylamino)-3-((4-fluorobenzyl)amino)benzoate]
- EC50 [5]: 50 nM

SMILES: CCOC(=O)c1ccc(NC2CCCCC2)c(NCc2ccc(C)cc2)c1 [SRS12-34, ethyl 4-(cyclohexylamino)-3-((4-methylbenzyl)amino)benzoate]
- EC50 [5]: 40 nM

SMILES: CCOC(=O)c1ccc(NC2CCCCC2)c(NCc2ccc(Br)cc2)c1 [SRS12-35, ethyl 3-((4-bromobenzyl)amino)-4-(cyclohexylamino)benzoate]
- EC50 [5]: 44 nM

SMILES: CCOC(=O)c1ccc(NC2CCCCC2)c(NCc2ccc([N+](=O)[O-])cc2)c1 [SRS12-36, ethyl 4-(cyclohexylamino)-3-((4-nitrobenzyl)amino)benzoate]
- EC50 [5]: 36 nM

SMILES: CCOC(=O)c1ccc(NC2CCCCC2)c(NCc2ccc(OC)cc2)c1 [SRS12-43, ethyl 4-(cyclohexylamino)-3-((4-methoxybenzyl)amino)-benzoate]
- EC50 [5]: 69 nM

SMILES: CCOC(=O)c1ccc(NC2CCCCC2)c(NCc2ccncc2)c1 [SRS12-45, ethyl 4-(cyclohexylamino)-3-((pyridin-4-ylmethyl)amino)-benzoate]
- potency compared with Fer-1 (HT-1080, erastin (10 μM)): more potent than Fer-1
- EC50 [6]: 25 nM

SMILES: CCOC(=O)c1ccc(NC2CCCCC2)c(NCc2ccccn2)c1 [SRS12-46, ethyl 4-(cyclohexylamino)-3-(pyridin-2-ylmethylamino)-benzoate]
- EC50 [6]: 33 nM

SMILES: Nc1cc(C(=O)OCCN2CCOCC2)ccc1NC1CCCCC1 [SRS12-47, 2-morpholinoethyl 3-amino-4-(cyclohexylamino)benzoate]
- EC50 [1]: 660 nM

SMILES: CCOC(=O)c1ccc(NC2CCCCC2)c(NCc2ccc(C(F)(F)F)cc2)c1 [SRS12-48, ethyl 4-(cyclohexylamino)-3-(4-(trifluoromethyl)benzylamino)-benzoate]
- EC50 [5]: 46 nM

SMILES: CCOC(=O)c1ccc(NC2CCCCC2)c(NCc2ccc(Cl)cc2)c1 [SRS12-49, ethyl 3-(4-chlorobenzylamino)-4-(cyclohexylamino)benzoate]
- EC50 [5]: 371 nM

SMILES: CCOC(=O)c1ccc(NC2CCCCC2)c(NCc2ccc(C#N)cc2)c1 [SRS12-50, ethyl 3-(4-cyanobenzylamino)-4-(cyclohexylamino)benzoate]
- EC50 [5]: 100 nM

SMILES: CCOC(=O)c1ccc(NC2CCCCC2)c(NCc2ccc3ccccc3c2)c1 [SRS12-51, ethyl 4-(cyclohexylamino)-3-(naphthalen-2-ylmethylamino)-benzoate]
- EC50 [6]: 58 nM

SMILES: CCOC(=O)c1ccc(NC2CCCCC2)c(NCc2cc(F)cc(Br)c2)c1 [SRS12-52, ethyl 3-(3-bromo-5-fluorobenzylamino)-4-(cyclohexylamino)-benzoate]
- EC50 [6]: 105 nM

SMILES: CCOC(=O)c1ccc(NC2CCCCC2)c(NCc2cc(OC)cc(OC)c2)c1 [SRS12-53, ethyl 4-(cyclohexylamino)-3-(3,5-dimethoxybenzylamino)-benzoate]
- EC50 [6]: 41 nM

SMILES: CCOC(=O)c1ccc(NC2CCCCC2)c(NCc2ccc(F)c(C#N)c2)c1 [SRS12-54, ethyl 3-(3-cyano-4-fluorobenzylamino)-4-(cyclohexylamino)-benzoate]
- EC50 [6]: 159 nM

SMILES: CCOC(=O)c1ccc(NC2CCCCC2)c(NCc2cccc(F)c2)c1 [SRS12-57, ethyl 4-(cyclohexylamino)-3-(3-fluorobenzylamino)benzoate]
- EC50 [5]: 100 nM

SMILES: CCOC(=O)c1ccc(NC2CCCCC2)c(NCc2cccc(Cl)c2)c1 [SRS12-58, ethyl 3-(3-chlorobenzylamino)-4-(cyclohexylamino)benzoate]
- EC50 [5]: 41 nM

SMILES: CCOC(=O)c1ccc(NC2CCCCC2)c(NCc2cc(F)cc(F)c2)c1 [SRS12-59, ethyl 4-(cyclohexylamino)-3-(3,5-difluorobenzylamino)-benzoate]
- EC50 [6]: 96 nM

SMILES: CCOC(=O)c1ccc(NC2CCCCC2)c(NCc2ccccc2[N+](=O)[O-])c1 [SRS12-71, ethyl 4-(cyclohexylamino)-3-(2-nitrobenzylamino)benzoate]
- EC50 [5]: 126 nM

SMILES: CCOC(=O)c1ccc(NC2CCCCC2)c(NCc2ccc(C(=O)OC)cc2)c1 [SRS12-80, ethyl 4-(cyclohexylamino)-3-(4-(methoxycarbonyl)-benzylamino)benzoate]
- EC50 [6]: 33 nM

SMILES: CCOC(=O)c1ccc(CNc2cc(C(=O)OCC)ccc2NC2CCCCC2)cc1 [SRS12-84, ethyl 4-(cyclohexylamino)-3-(4-(ethoxycarbonyl)benzylamino)-benzoate]
- EC50 [6]: 53 nM

SMILES: CCOC(=O)c1ccc(NC2CCCCC2)c(NCc2cccnc2)c1 [SRS13-12, ethyl 4-(cyclohexylamino)-3-(pyridin-3-ylmethylamino)-benzoate]
- EC50 [6]: 48 nM

SMILES: CCOC(=O)c1ccc(NC2CCC(C(C)(C)C)CC2)c(NCc2ccncc2)c1 (centres unmarked) [SRS13-30, ethyl 4-(4-tert-butylcyclohexylamino)-3-(pyridin-4-ylmethylamino)benzoate]
- EC50 [6]: 114 nM

SMILES: CCOC(=O)c1ccc(NC23CC4CC(CC(C4)C2)C3)c([N+](=O)[O-])c1 [SRS15-15]
- EC50 (nM) (Table 1 (Example 10), erastin (10 μM)-treated HT-1080 cells): Not active

SMILES: CCOC(=O)c1ccc(NC2C3CC4CC(C3)CC2C4)c(N)c1 (centres unmarked) [SRS15-17, ethyl 3-amino-4-(2-adamantylamino)benzoate]
- EC50 [7]: 171 nM

SMILES: CCOC(=O)c1ccc(NC23CC4CC(CC(C4)C2)C3)c(N)c1 [SRS15-18, ethyl 3-amino-4-(1-adamantylamino)benzoate]
- EC50 [7]: 87.7 nM

SMILES: CCOC(=O)c1ccc(NC2C3CC4CC(C3)CC2C4)c(N(Cc2ccccc2)Cc2ccccc2)c1 (centres unmarked) [SRS15-20_di, ethyl 3-(dibenzylamino)-4-(2-adamantylamino)benzoate]
- EC50 [7]: 914 nM

SMILES: CCOC(=O)c1ccc(NC2C3CC4CC(C3)CC2C4)c(NCc2ccccc2)c1 (centres unmarked) [SRS15-20_mono, ethyl 3-(benzylamino)-4-(2-adamantylamino)benzoate]
- EC50 [7]: 21.7 nM

SMILES: CCOC(=O)c1ccc(NC2C3CC4CC(C3)CC2C4)c(NCc2ccncc2)c1 (centres unmarked) [SRS15-21, ethyl 4-(2-adamantylamino)-3-((pyridin-4-ylmethyl)amino)-benzoate]
- EC50 [7]: 23 nM
